Measured values published in patent US20180217163A1, “TREATMENT OF NEURODEGENERATIVE CONDITIONS USING PKC ACTIVATORS AFTER DETERMINING THE PRESENCE OF THE APOE4 ALLELE” (priority 2015, published 2018).

What was measured:
PKCε [1] = target: T1, PKCε (Mus musculus, UniProt P16054); test: PKCε activation in brain of mice (FIG. 11); format: in vivo; conditions: single intravenous injection
T1 construct: from tissue; host or cells: mouse brain
T1 sequence (P16054 1-737): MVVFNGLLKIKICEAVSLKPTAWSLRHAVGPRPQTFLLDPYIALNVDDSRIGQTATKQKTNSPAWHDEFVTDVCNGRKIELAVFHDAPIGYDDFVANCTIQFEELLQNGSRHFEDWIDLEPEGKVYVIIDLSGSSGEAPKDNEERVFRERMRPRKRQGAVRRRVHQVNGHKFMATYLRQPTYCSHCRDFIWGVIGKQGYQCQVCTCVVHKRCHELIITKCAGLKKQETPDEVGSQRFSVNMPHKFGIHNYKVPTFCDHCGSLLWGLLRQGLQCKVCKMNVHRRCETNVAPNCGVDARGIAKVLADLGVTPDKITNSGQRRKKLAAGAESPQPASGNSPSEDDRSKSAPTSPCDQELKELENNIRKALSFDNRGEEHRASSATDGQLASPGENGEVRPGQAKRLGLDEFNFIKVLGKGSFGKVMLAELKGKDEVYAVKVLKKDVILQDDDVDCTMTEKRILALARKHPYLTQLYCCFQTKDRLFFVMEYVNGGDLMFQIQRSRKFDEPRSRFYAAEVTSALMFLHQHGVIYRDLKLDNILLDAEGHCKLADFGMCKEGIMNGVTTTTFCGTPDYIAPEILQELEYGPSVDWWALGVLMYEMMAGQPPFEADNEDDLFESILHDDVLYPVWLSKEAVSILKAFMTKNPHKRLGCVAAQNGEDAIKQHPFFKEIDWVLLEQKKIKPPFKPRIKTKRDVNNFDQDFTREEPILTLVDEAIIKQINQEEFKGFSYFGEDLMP

PKCε [2] = target: T2, PKCε (Homo sapiens, UniProt Q02156); test: Phase IIa clinical trial: PKCε levels after bryostatin; format: in vivo
T2 construct: from tissue; host or cells: blood of trial subjects
T2 sequence (Q02156 1-737): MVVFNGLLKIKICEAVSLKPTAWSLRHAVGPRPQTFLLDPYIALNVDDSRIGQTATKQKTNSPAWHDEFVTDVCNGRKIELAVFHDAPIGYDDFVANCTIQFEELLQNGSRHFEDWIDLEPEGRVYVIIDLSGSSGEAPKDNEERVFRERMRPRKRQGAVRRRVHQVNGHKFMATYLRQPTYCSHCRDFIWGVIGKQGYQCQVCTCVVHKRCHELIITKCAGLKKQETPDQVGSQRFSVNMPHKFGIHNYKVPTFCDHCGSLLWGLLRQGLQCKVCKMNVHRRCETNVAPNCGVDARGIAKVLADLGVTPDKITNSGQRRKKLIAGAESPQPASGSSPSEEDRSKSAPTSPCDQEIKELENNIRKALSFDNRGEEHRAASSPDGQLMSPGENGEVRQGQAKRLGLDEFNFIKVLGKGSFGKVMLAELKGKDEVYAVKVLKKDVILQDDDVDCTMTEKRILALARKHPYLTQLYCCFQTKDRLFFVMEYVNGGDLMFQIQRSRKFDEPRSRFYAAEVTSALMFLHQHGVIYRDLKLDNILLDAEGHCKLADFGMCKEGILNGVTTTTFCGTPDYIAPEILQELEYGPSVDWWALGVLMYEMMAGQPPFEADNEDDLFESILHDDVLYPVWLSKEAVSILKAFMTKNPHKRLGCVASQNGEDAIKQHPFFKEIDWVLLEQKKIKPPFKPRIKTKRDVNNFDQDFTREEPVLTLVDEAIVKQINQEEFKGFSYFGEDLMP

[3] = cited from earlier work
HDAC4 = HDAC4 nuclear translocation in SH-SY5Y cells (immunoblot); format: cell-based, human; conditions: ApoE4+ASPD induced translocation, 24 h
Protocol: (§1) Human SH-SY5Y neuroblastoma cells (Sigma-Aldrich), were cultured in 45% F12K, 45% MEM, and 10% FBS. Cells were treated with cholesterol, ASPD, ApoE3/ApoE4+cholesterol, or PKC activators for 24 h. Cholesterol was dissolved in ethanol. ApoE (20 nM) and cholesterol (100 μM) were mixed separately into the cultures. To block the ApoE receptors, cells were treated with RAP for 30 min before adding ApoE. Human primary neurons (ScienCell Research Laboratories) were plated on poly-L-lysine-coated plates and were maintained in neuronal medium (ScienCell Research Laboratories) supplemented with the neuronal growth supplements (ScienCell Research Laboratories). Half of the culture medium was changed every 3 d and fresh activators were added with every medium change to maintain viable neurons.
A PBS solution of 5×10^6 Human SH-SY5Y neuroblastoma cells was centrifuged and the resultant cell pellet was resuspended and washed twice with cold PBS. After the second wash, the cell pellet was resuspended in 500 μl of hypotonic buffer (20 mM Tris-Cl, pH 7.4, 10 mM NaCl, 3 mM MgCl2, and 1 mM PMSF) and incubated on ice for 15 min. Next, 25 μl of 10% NP-40 was added to the cell suspension and the sample was vortexed for 10 s. The homogenate was centrifuged for 10 min at 1000×g at 4° C. to obtain the cytoplasmic fraction (supernatant) and nuclear fraction (pellet). […] Protein concentration was measured using the Coomassie Plus (Bradford) Protein Assay kit (Pierce).
Protein in samples of the supernetant and nuclear fractions was separated by SDSPAGE in a 4-20% gradient Tris-Glycine gel (Invitrogen). […] The immunoblot proteins were detected using ImageQuant RT-ECL (GE Life Sciences) and densitometric quantification was performed using IMAL software, which was developed at our institution. […]

HDAC6 = HDAC6 nuclear translocation in SH-SY5Y cells (immunoblot); format: cell-based, human; conditions: ApoE4+ASPD induced translocation, 24 h
Protocol: as §1
A PBS solution of 5×10^6 Human SH-SY5Y neuroblastoma cells was centrifuged and the resultant cell pellet was resuspended and washed twice with cold PBS. After the second wash, the cell pellet was resuspended in 500 μl of hypotonic buffer (20 mM Tris-Cl, pH 7.4, 10 mM NaCl, 3 mM MgCl2, and 1 mM PMSF) and incubated on ice for 15 min. Next, 25 μl of 10% NP-40 was added to the cell suspension and the sample was vortexed for 10 s. The homogenate was centrifuged for 10 min at 1000×g at 4° C. to obtain the cytoplasmic fraction (supernatant) and nuclear fraction (pellet). After removing the supernetant, the nuclear pellet was resuspended in 50 μl of complete cell extraction buffer (100 mM Tris-Cl, pH 7.4, 2 mM Na3VO4, 100 mM NaCl, 1% Triton X-100, 1 mM EDTA, 10% glycerol, 1 mM EGTA, 0.1% SDS, 1 mM NaF, 0.5% deoxycholate, 20 mM Na4P2O7, and 1 mM PMSF) and incubated on ice for 30 min with vortexing at 10 min intervals. The nuclear lysate was centrifuged at 14,000×g for 30 min at 4° C. to obtain the nuclear fraction (supernatant). Protein concentration was measured using the Coomassie Plus (Bradford) Protein Assay kit (Pierce).
Protein in samples of the supernetant and nuclear fractions was separated by SDSPAGE in a 4-20% gradient Tris-Glycine gel (Invitrogen). The protein was then transferred to nitrocellulose membrane. The membrane was blocked with BSA at room temperature for 15 min and incubated with primary antibody overnight at 4° C. After incubation, the membrane was washed thrice (3×) with TBS-T (Tris-buffered saline-Tween 20) and further incubated with alkaline-phosphatase-conjugated secondary antibody (Jackson Immunoresearch Laboratories) at 1:10,000 dilution for 45 min. Following incubation, the membrane was washed 3× with TBS-T and developed using the 1-step NBT-BCIP substrate (Pierce). […] The immunoblot proteins were detected using ImageQuant RT-ECL (GE Life Sciences) and densitometric quantification was performed using IMAL software, which was developed at our institution. […]

PKCε mRNA = PKCε mRNA expression in SH-SY5Y cells (qRT-PCR); format: cell-based, human; conditions: ASPD+ApoE4 treated cells plus PKC activator
Protocol: as §1
qRT-PCR was performed and the results analyzed as described previously (Schmittgen et al., Analyzing real-time PCR data by the comparative C(T) method, Nat. Protoc., 3:1101-1108, 2008; Sen et al., 2012 supra). Total RNA (500 ng) was reverse transcribed using oligo(dT) and Superscript III (Invitrogen) at 50° C. for 1 h. The cDNA products were analyzed using a LightCycler 480 II (Roche) PCR machine and LightCycler 480 SYBR Green 1 master mix following the manufacturer's protocol. […]

BDNF mRNA = BDNF mRNA expression in SH-SY5Y cells (qRT-PCR); format: cell-based, human
Protocol: as §1
(§2) qRT-PCR was performed and the results analyzed as described previously (Schmittgen et al., Analyzing real-time PCR data by the comparative C(T) method, Nat. Protoc., 3:1101-1108, 2008; Sen et al., 2012 supra). Total RNA (500 ng) was reverse transcribed using oligo(dT) and Superscript III (Invitrogen) at 50° C. for 1 h. The cDNA products were analyzed using a LightCycler 480 II (Roche) PCR machine and LightCycler 480 SYBR Green 1 master mix following the manufacturer's protocol. Primers for PKCε (forward primer: […], reverse primer: […], PKCα (forward-[…], reverse: […]), PKC (forward: […], reverse: CCGATG […]), GAPDH (forward: […], reverse: […]), and BDNF (forward: […], reverse: […]; Origene).

[4] = system: HDAC6-BDNF PIII association; test: ChIP: HDAC6 association with BDNF promoter III; format: cell-based, human
Protocol: as §1
(§3) BDNF promoter- and exon specific primers were used as described previously (Pruunsild et al., Dissecting the human BDNF locus: bidirectional transcription, complex splicing, and multiple promoters, Genomics, 90:397-406, 2007). […]
(§4) ChIP was conducted using the SimpleChlP Enzymatic Chromatin IP kit (Cell Signaling Technology) following the manufacturer's protocol. […] The cumulative fluorescence for each amplicon was normalized to input DNA. […]

[5] = system: HDAC6-BDNF PIV association; test: ChIP: HDAC6 association with BDNF promoter IV; format: cell-based, human
Protocol: as §1, §3, §4

BDNF-exon IV = BDNF-exon IV expression in SH-SY5Y cells (qRT-PCR); format: cell-based, human
Protocol: as §1, §2
BDNF promoter- and exon specific primers were used as described previously (Pruunsild et al., Dissecting the human BDNF locus: bidirectional transcription, complex splicing, and multiple promoters, Genomics, 90:397-406, 2007). BDNF-promotor I (PI) (forward: […], reverse: […]), BDNF-promotor II (PII) (forward: […], reverse: […]), BDNF-promotor III (PIII) (forward: […], reverse: […]), BDNF-promoter (IV) (PIV) (forward: […], reverse: […]), BDNF-promoter IX (PIX) (forward: […], reverse: […]) were from Invitrogen. […]

CCC/C=C/C=C/C(=O)O[C@H]1/C(=C/C(=O)OC)C[C@H]2C[C@H]([C@@H](C)O)OC(=O)C[C@H](O)C[C@@H]3C[C@H](OC(C)=O)C(C)(C)[C@](O)(C[C@@H]4C/C(=C/C(=O)OC)C[C@H](/C=C/C(C)(C)[C@]1(O)O2)O4)O3 [Bryostatin-1]
PKCε expression and levels in the brain (PKCε [1]): activate PKCε expression and increase PKCε levels in the brain of mice | synthesis of PKCε (PKCε [2]): increases the synthesis of PKCε | time of highest PKCε levels post administration (PKCε [2]): 1 h | t1/2 in the blood stream ([3]; blood): 1 h | crossing of the blood-brain barrier ([3]; in vivo): crosses the blood-brain barrier | part of initial dose in the blood at 100 hrs ([3]; intravenous injection, 100 hrs): 1% | time detectable in the blood after a single injection ([3]; single injection): 14 days

CCCCCC1CC1CC1CC1CCCCCCCC(=O)OC (centres unmarked) [DCPLA-ME, DCPLA methyl ester]
reduction of nuclear import of HDAC4 (HDAC4): 35±6.9% | reduction in nuclear HDAC6 (HDAC6): 56±5.9% | PKCε mRNA levels (PKCε mRNA): 0.95±0.09 fold | BDNF expression (BDNF mRNA; cells treated with ApoE4+Chol+DCPLA-ME): 0.95±0.1 | BDNF expression (BDNF mRNA; cholesterol treated cells): 1.91±0.21 fold | effect on ApoE4+Chol induced HDAC6-PIII association [4]: blocked the ApoE4+Chol induced increase | effect on ApoE4+Chol induced HDAC6-PIV association [5]: blocked the ApoE4+Chol induced increase | BDNF-exon IV expression (BDNF-exon IV; ApoE3+Chol+DCPLA-ME): 1.98±0.13 | BDNF-exon IV expression (BDNF-exon IV; ApoE4+Chol+DCPLA-ME): 0.74±0.01 | BDNF-exon IV expression (BDNF-exon IV; DCPLA-ME+Chol): 1.85±0.27 fold
